Reference: patent US9447086B2, “6-amino acid heteroaryldihydropyrimidines for the treatment and prophylaxis of hepatitis B virus infection” (priority 2012, dated 2016)
Where two headings read alike, the source gives them in different places. Marks after values point to notes of the source that are not given here.

Assays:
HepDE19 cells = assay: Cytotoxicity (CC50) in HepDE19 cells, CCK-8 cell viability; assay type: cell-based
Outline: (§1)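 HBV-transfected HepG2-derived HepDE19 cells grown in DMEM-F12 with 10% FBS and G418. Viability read five days after treatment by CCK-8, 2 h at 37 °C, absorbance at 450 and 630 nm.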

[1] = Mouse SDPK (single dose PK in male ICR mouse, plasma and liver); assay type: in vivo; conditions: male ICR mice; for bioavailability / AUC(0-inf) / clearance: mouse; for bioavailability: 1 mg/kg IV, 3 mg/kg PO, read-out: F (bioavailability); for clearance: read-out: Plasma Cl (IV)
Description: The single dose PK in male ICR mouse was performed to assess their pharmacokinetic properties. Two groups of animals were dosed via either bolus intravenous (IV) or oral gavage (PO) of the respective compound. The animals for oral administration were fasted overnight prior to dosing and food was resumed 4 hours postdose. Blood samples (approximately 400 μL) were collected via cardiac puncture after euthanasia by carbon dioxide inhalation at 2 mins, 5 mins, 15 mins, 30 mins, 1 h, 2 hrs, 4 hrs, 6 hrs, 8 hrs, and 24 hrs postdose for IV group, and at 5 mins, 15 mins, 30 mins, 1 h, 2 hrs, 4 hrs, 6 hrs, 8 hrs, and 24 hrs postdose for PO group. Blood samples were placed into tubes containing sodium heparin and centrifuged at 8000 rpm for 6 minutes at 4° C. to separate plasma from the samples. Following centrifugation, the resulting plasma was transferred to clean tubes for bioanalysis on LC/MS/MS. The pharmacokinetic parameters were calculated using non-compartmental module of WinNonlin® Professional 5.2.

[2] = Metabolic stability study in human microsome; assay type: in vitro ADME
Outline: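 Human liver microsomes (0.5 mg/mL) with 1 μM compound in 100 mM phosphate pH 7.4 at 37 °C, started with 1 mM NADPH or an NADPH-regenerating system. Samples taken at 0, 3, 6, 9, 15 and 30 min, quenched in methanol. Parent remaining measured by LC-MS/MS; no-cofactor controls included.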

[3] = Lyophilisation solubility assay (Lysa); assay type: physicochemical; conditions: phosphate buffer, pH 6.5, aqueous buffer, thermodynamic from solid
Outline: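 Duplicate samples from 10 mM DMSO stocks are dried, redissolved in 0.05 M phosphate buffer pH 6.5, stirred 1 h, shaken 2 h and left overnight. Filtrate and its 1/10 dilution are quantified by direct UV or HPLC-UV, giving solubility in μg/mL.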

HBV [4] = assay: Anti-HBV activity in vitro in HepG2.2.15 cells (extracellular HBV DNA by qPCR); assay type: cell-based, Hepatitis B virus; conditions: HepG2.2.15 cells, in-house data, read-out: EC50
Outline: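 HepG2.2.15 cells, which constitutively produce HBV, were seeded overnight and then treated for 5 days with half-log serially diluted compounds at 0.5% final DMSO. Extracellular HBV DNA in culture supernatant was extracted and quantified by qPCR.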

[5] = Cytotoxicity (CC50) in HepDE19 cells, CCK-8 cell viability; assay type: cell-based; conditions: human, HepDE19 cells; read-out: CC50
Outline: as §1

HBV [6] = assay: Selectivity index (CC50 value/EC50 value); assay type: cell-based, Hepatitis B virus
Outline: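 Ratio of CC50 to EC50, measuring antiviral activity against HBV relative to cytotoxicity in vitro; higher values indicate greater separation between viral inhibition and cell death.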

HBV [7] = conditions: literature data, Deres K. et al. Science 2003, 893-896; cited from earlier work
[8] = literature data, Deres K. et al. Science 2003, 893-896; cited from earlier work
[9] = plasma, dose 1 mg/kg IV, read-out: Plasma AUC(0-∞) (IV)

Row | SMILES | CC50 (HepDE19 cells) [nM] | Liver AUC(0-∞) (PO) ([1]; dose 3 mg/kg PO) [ng·h/mL] | Plasma AUC(0-∞) (PO) ([1]; plasma, dose 3 mg/kg PO) [ng·h/mL] | bioavailability ([1]; plasma) [%] | AUC(0-inf) [1, 9] [ng·h/mL] | clearance ([1]; plasma, dose 1 mg/kg IV) [mL/min/kg] | Human Hepatic Clearance [2] [mL/min/kg] | solubility thermodynamic [3] [µg/mL] | EC50 (HBV [4]; Hepatitis B virus) [nM] | CC50 at 5 days [5] [nM] | Selectivity index (CC50/EC50) (HBV [6]) | AUC(0-inf) ([1]; plasma, dose 3 mg/kg PO, read-out: Plasma AUC(0-∞) (PO)) [ng·h/mL] | EC50 (HBV [4]) [nM] | F (bioavailability) ([1]; plasma, 5 mg/kg IV, 30 mg/kg PO) [%] | Plasma AUC(0-∞) (IV) ([1]; plasma, dose 5 mg/kg IV) [ng·h/mL] | Plasma Cl (IV) ([1]; plasma, dose 5 mg/kg IV) [mL/min/kg] | Plasma AUC(0-∞) (PO) ([1]; plasma, dose 30 mg/kg PO) [ng·h/mL] | EC50 (HBV [7]) [nM] | F (bioavailability) [8] | Plasma Cl (IV) [8]
1 | COC(=O)C1=C(CN2CCOC[C@H]2C(=O)O)N=C(c2nccs2)N[C@H]1c1ccc(F)cc1Cl [Example 5, (S)-4-[(R)-6-(2-Chloro-4-fluoro-phenyl)-5-methoxycarbonyl-2-thiazol-2-yl-3,6-dihydro-pyrimidin-4-ylmethyl]-morpholine-3-carboxylic acid] | > 100000 | 11800 | 962 | 37 | 878 | 19 | 2.7 | > 660 |  |  |  |  |  |  |  |  |  |  |  | 
2 | COC(=O)C1=C(CN2CC(F)(F)C[C@H]2C(=O)O)NC(c2nccs2)=N[C@H]1c1ccc(F)cc1Cl [Example 2, (R)-6-((S)-2-Carboxy-4,4-difluoro-pyrrolidin-1-ylmethyl)-4-(2-chloro-4-fluoro-phenyl)-2-thiazol-2-yl-1,4-dihydro-pyrimidine-5-carboxylic acid methyl ester] |  | 18000 |  | 94 | 995 | 17 | 3.65 | > 698 | 2.7 | 85000 | 31481 | 2790 |  |  |  |  |  |  |  | 
3 | COC(=O)C1=C(C)NC(c2ncc(F)cc2F)=N[C@H]1c1ccc(F)cc1Cl [Bay 41-4109, reference compound] |  |  |  |  |  |  |  |  |  |  |  |  | 87 | 21 | 1380 | 60 | 1740 | 50 | (31^1) % | (67^1) mL/min/kg
